Laboratory results reported in ChEMBL document CHEMBL1255536, “Synthesis of aminoquinazoline derivatives and their antiproliferative activities against melanoma cell line” (Bioorg Med Chem Lett, 2010).

What was measured:
[1] = Cytotoxicity against human A375P cells after 24 hrs by MTT assay; format: functional, cell-based
HS27 = test: Cytotoxicity against human HS27 cells after 24 hrs by MTT assay; format: cell-based; settings: HS27, 24 h
[2] = target: Serine/threonine-protein kinase B-raf (Homo sapiens, UniProt P15056, V600E); test: Inhibition of b-Raf V600E mutant
[3] = target: RAF proto-oncogene serine/threonine-protein kinase (Homo sapiens, UniProt P04049); test: Inhibition of c-Raf
[4] = Cytotoxicity against human A375P cells at 100 uM after 24 hrs by MTT assay; format: functional, cell-based

Serine/threonine-protein kinase B-raf, sequence (P15056 2-766 V600E limits assumed): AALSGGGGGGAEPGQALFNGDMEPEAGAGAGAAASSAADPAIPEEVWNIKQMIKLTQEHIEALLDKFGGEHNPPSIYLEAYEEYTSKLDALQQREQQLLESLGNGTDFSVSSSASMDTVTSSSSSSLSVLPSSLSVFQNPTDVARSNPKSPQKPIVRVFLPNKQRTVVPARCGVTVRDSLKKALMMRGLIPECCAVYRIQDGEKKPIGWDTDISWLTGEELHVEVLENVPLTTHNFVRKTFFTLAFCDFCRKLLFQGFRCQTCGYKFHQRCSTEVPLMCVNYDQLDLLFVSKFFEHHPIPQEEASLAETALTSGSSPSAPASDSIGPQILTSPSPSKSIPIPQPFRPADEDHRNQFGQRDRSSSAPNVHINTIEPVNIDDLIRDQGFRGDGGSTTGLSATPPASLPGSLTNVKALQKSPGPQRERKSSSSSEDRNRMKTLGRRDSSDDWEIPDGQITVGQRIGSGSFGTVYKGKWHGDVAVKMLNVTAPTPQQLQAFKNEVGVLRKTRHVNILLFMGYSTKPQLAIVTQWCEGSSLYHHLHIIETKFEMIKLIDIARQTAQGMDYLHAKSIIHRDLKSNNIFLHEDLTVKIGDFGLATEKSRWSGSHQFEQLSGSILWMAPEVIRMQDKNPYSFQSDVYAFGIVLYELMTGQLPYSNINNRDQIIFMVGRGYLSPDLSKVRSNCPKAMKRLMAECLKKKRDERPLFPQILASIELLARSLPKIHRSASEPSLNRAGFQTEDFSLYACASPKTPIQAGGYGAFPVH
RAF proto-oncogene serine/threonine-protein kinase, sequence (P04049 whole entry): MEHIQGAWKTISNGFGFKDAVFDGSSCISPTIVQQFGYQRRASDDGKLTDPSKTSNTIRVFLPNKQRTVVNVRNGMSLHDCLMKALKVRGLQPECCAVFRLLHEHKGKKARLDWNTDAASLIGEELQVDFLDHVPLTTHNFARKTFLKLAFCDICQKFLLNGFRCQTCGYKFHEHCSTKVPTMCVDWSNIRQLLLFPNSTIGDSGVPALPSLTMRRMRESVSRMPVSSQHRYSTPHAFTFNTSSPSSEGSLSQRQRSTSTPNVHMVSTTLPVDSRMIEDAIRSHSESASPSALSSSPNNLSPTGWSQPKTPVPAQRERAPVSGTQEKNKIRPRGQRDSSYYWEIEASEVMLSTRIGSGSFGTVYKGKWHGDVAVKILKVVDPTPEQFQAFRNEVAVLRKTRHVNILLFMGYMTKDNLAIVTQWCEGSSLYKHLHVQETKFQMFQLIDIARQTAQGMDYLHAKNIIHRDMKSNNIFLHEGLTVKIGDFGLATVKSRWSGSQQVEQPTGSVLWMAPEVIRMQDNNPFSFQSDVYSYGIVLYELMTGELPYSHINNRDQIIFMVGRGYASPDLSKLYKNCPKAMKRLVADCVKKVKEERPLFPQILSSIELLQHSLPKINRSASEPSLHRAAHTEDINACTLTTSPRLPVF

SMILES | IC50 [1] [µM] | IC50 [4] | further results
CNc1ncnc2c(CNc3cc(NC(=O)c4cscn4)ccc3C)cccc12 | 1.9 |  | 
CNC(=O)c1cc(Oc2ccc(NC(=O)Nc3ccc(Cl)c(C(F)(F)F)c3)cc2)ccn1 [SORAFENIB] | 5.58 |  | 
CNc1ncnc2c(CNc3cc(NC(=O)c4ccc(Cl)c(C(F)(F)F)c4)ccc3C)cccc12 | 9.7 |  | 
CNc1ncnc2c(CNc3cc(NC(=O)c4ccnnc4)ccc3C)cccc12 | 61.7 |  | 
CNc1ncnc2c(CNc3cc(NC(=O)c4cc(=O)c5ccccc5o4)ccc3C)cccc12 | 0.006 |  | IC50 (HS27): 0.23 µM; IC50 [2]: 19.5 µM; IC50 [3]: 0.765 µM
CNc1ncnc2c(CNc3cc(NC(=O)c4ccc(-c5ccc(OC)cc5)o4)ccc3C)cccc12 |  | Not Active | 
CNc1ncnc2c(CNc3cc(NC(=O)c4cc(C)oc4C)ccc3C)cccc12 |  | Not Active | 
CNc1ncnc2c(CNc3cc(NC(=O)c4cc5ccccc5s4)ccc3C)cccc12 |  | Not Active | 
CNc1ncnc2c(CNc3cc(NC(=O)c4ccc(OC)c5ccc(OC)cc45)ccc3C)cccc12 |  | Not Active | 
CNc1ncnc2c(CNc3cc(NC(=O)c4cc(C(F)(F)F)cc(C(F)(F)F)c4)ccc3C)cccc12 | 0.769 |  | 
CNc1ncnc2c(CNc3cc(NC(=O)c4ccc5c(c4)OCCO5)ccc3C)cccc12 | 0.137 |  | IC50 (HS27): 1.2 µM
CNc1ncnc2c(CNc3cc(NC(=O)c4cc(C)on4)ccc3C)cccc12 | 1.2 |  | 
CNc1ncnc2c(CNc3cc(NC(=O)c4ccc(Br)s4)ccc3C)cccc12 | 10.5 |  | 
CNc1ncnc2c(CNc3cc(NC(=O)c4cnccn4)ccc3C)cccc12 |  | Not Active | 
CNc1ncnc2c(CNc3cc(NC(=O)c4cccc(C(F)(F)F)c4)ccc3C)cccc12 | 0.433 |  | 
CNc1ncnc2c(CNc3cc(NC(=O)c4ccc(N)c(C(F)(F)F)c4)ccc3C)cccc12 |  | Not Active | 
CNc1ncnc2c(CNc3cc(NC(=O)c4ccc(Cl)c(-n5cnc(C)c5)c4)ccc3C)cccc12 |  | Not Active | 
CNc1ncnc2c(CNc3cc(NC(=O)c4ccc(-c5cc(C(F)(F)F)ccc5Cl)o4)ccc3C)cccc12 | 14.9 |  | 
CNc1ncnc2c(CNc3cc(NC(=O)c4ccncc4Cl)ccc3C)cccc12 |  | Not Active | 
